Source: patent publication US20020123514A1, “Treatment of diabetes with thiazolidinedione and alpha-glucosidase inhibitor” (SmithKline Beecham plc, priority 1997, published 2002)

Test: Pharmacokinetic interaction study: single oral dose of Compound (I) alone and coadministered with acarbose
Format: in vivo, healthy volunteers
Method: This study investigated whether administration of acarbose (A) alters the PK of co-administered Compound (I). Sixteen healthy volunteers (24-59 yo) received a single oral dose of Compound (I) (8 mg) on Day 1, followed by 7 days of repeat dosing with A (100 mg tid with meals). On Day 8, a single oral dose of Compound (I) was coadministered with the morning dose of A. PK profiles following Compound (I) dosing on Days 1 and 8 were compared. […] PK data and point estimates [95% confidence intervals] for Compound (I)+A: Compound (I) alone were analyzed.

[1] = human, in vivo, Compound (I) alone, single oral dose 8 mg, Day 1, healthy volunteers

Row | SMILES | AUC(0-inf) [1] | Cmax [1] | half-life (human, in vivo, Compound (I) alone, single oral dose 8 mg, Day 1, healthy volunteers, read-out: T½ (converted)) | Tmax (human, in vivo, Compound (I) alone, single oral dose 8 mg, Day 1, median (range)) | effect on Compound (I) clearance (acarbose 100 mg tid coadministered, changes small, not likely clinically relevant)
1 | CN(CCOc1ccc(CC2SC(=O)NC2=O)cc1)c1ccccn1 (centres unmarked) [Compound (I), 5-[4-[2-(N-methyl-N-(2-pyridyl)amino)ethoxy]benzyl]thiazolidine-2,4-dione] | 2790 ng·h/mL | 428 ng/mL | 296 min | 1.48 h | 
2 | C[C@H]1O[C@H](O[C@H]2[C@H](O)[C@@H](O)[C@@H](O[C@H]3[C@H](O)[C@@H](O)C(O)O[C@@H]3CO)O[C@@H]2CO)[C@H](O)[C@@H](O)[C@@H]1N[C@H]1C=C(CO)[C@@H](O)[C@H](O)[C@H]1O (some centres unmarked) [acarbose, reference compound] |  |  |  |  | slightly increase
